Measured values as given in patent US9833497B2, “Human originated EGF domain proteins and use of the same” (CHENGDU SOURCEBIO LIMITED-LIABILITY COMPANY, priority 2013, dated 2017).

How the values were obtained:
Format in all cases: cell-based
[1] = test system: Proteus vulgaris; assay: MIC against Gram-negative bacteria: Proteus vulgaris; details: 5×10^5 CFU/mL
In short: (§1)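 Bacteria grown in LB at 37° C with shaking to McFarland 0.5, pelleted and resuspended in fresh LB, then seeded at 5×10^5 CFU/mL per well. Purified recombinant human EGF domain proteins were two-fold serially diluted in triplicate and plates shaken at 37° C, 175 rpm. MIC is the lowest protein concentration with no bacterial growth.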

[2] = test system: Moraxella catarrhalis; assay: MIC against Gram-negative bacteria: Moraxella catarrhalis; details: 5×10^5 CFU/mL
In short: as §1

[3] = test system: E. coli DH5α; assay: Antibacterial activity: MIC and growth curve against E. coli DH5α in 96-well plate; details: minimal inhibitory concentration against E. coli DH5α; 96-well plate, 5×10^5 CFU/mL, 37° C., judged after 8 h
In short: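 Log-phase bacteria (OD600 ~0.5) resuspended in LB at 5×10^5 CFU/mL, exposed to recombinant protein at 50, 25, 12.5 μg/mL final in triplicate, 37 °C shaking at 175 rpm. OD600 read every 30 min; MIC is lowest concentration showing no growth.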

[4] = test system: Citrobacter diversus; assay: MIC against Gram-negative bacteria: Citrobacter diversus; details: 5×10^5 CFU/mL
In short: as §1

[5] = test system: E. coli BL21; assay: MIC against Gram-negative bacteria: E. coli BL21; details: 5×10^5 CFU/mL
In short: as §1

[6] = test system: Aeromonas hydrophila; assay: MIC against Gram-negative bacteria: Aeromonas hydrophila; details: 5×10^5 CFU/mL
In short: as §1

[7] = test system: Proteus mirabilis; assay: MIC against Gram-negative bacteria: Proteus mirabilis; details: 5×10^5 CFU/mL
In short: as §1

[8] = test system: Enterobacter cloacae; assay: MIC against Gram-negative bacteria: Enterobacter cloacae; details: 5×10^5 CFU/mL
In short: as §1

[9] = test system: Serratia marcescens; assay: MIC against Gram-negative bacteria: Serratia marcescens; details: 5×10^5 CFU/mL
In short: as §1

[10] = test system: Klebsiella pneumonia; assay: MIC against Gram-negative bacteria: Klebsiella pneumonia; details: 5×10^5 CFU/mL
In short: as §1

[11] = test system: Pseudomonas aeruginosa; assay: MIC against Gram-negative bacteria: Pseudomonas aeruginosa; details: 5×10^5 CFU/mL
In short: as §1

[12] = 10 h cultivation at 37° C., two-fold serial dilution

PRT1125 (LCDQCVTSPGCLHGLCGEPGQCICTDGWDGELCD; listed as Homo sapiens)
MIC P. vulgaris [1, 12]: 12.5 µg/mL
MIC M. catarrhalis [2, 12]: 12.5 µg/mL
MIC [3]: 25 µg/mL
MIC C. diversus [4, 12]: 12.5 µg/mL
MIC E. coli BL21 [5, 12]: 12.5 µg/mL
MIC A. hydrophila [6, 12]: 12.5 µg/mL
MIC P. mirabilis [7, 12]: 12.5 µg/mL
MIC E. cloacae [8, 12]: 12.5 µg/mL
MIC S. marcescens [9, 12]: 25 µg/mL
MIC K. pneumonia [10, 12]: 12.5 µg/mL
MIC P. aeruginosa [11, 12]: 12.5 µg/mL

PRT1360 (NKPLCLNNCYNRGRCVENECVCDEGFTGEDCS; listed as Homo sapiens)
MIC against P. vulgaris ([1]; Proteus vulgaris, 10 h cultivation at 37° C.): 25 µg/mL
MIC against M. catarrhalis ([2]; Moraxella catarrhalis, 10 h cultivation at 37° C.): 50 µg/mL
MIC [3]: 12.5 µg/mL
MIC against C. diversus ([4]; Citrobacter diversus, 10 h cultivation at 37° C.): 12.5 µg/mL
MIC against E. coli BL21 ([5]; E. coli BL21, 10 h cultivation at 37° C.): 25 µg/mL
MIC against A. hydrophila ([6]; Aeromonas hydrophila, 10 h cultivation at 37° C.): 50 µg/mL
MIC against P. mirabilis ([7]; Proteus mirabilis, 10 h cultivation at 37° C.): 12.5 µg/mL
MIC against E. cloacae ([8]; Enterobacter cloacae, 10 h cultivation at 37° C.): 12.5 µg/mL
MIC against S. marcescens ([9]; Serratia marcescens, 10 h cultivation at 37° C.): 50 µg/mL
MIC against K. pneumonia ([10]; Klebsiella pneumonia, 10 h cultivation at 37° C.): 25 µg/mL
MIC against P. aeruginosa ([11]; Pseudomonas aeruginosa, 10 h cultivation at 37° C.): 50 µg/mL

PRT515 (CHCDPIGSLNEVCVKDEKHARRGLAPGSCHCKTGFGGVSCDRCARGYTGYPDCKA; listed as Homo sapiens)
MIC against P. vulgaris ([1]; 96-well plate, 37° C., 10 h): 12.5 µg/mL
MIC against M. catarrhalis ([2]; 96-well plate, 37° C., 10 h): 100 µg/mL
MIC [3]: 25 µg/mL
MIC against C. diversus ([4]; 96-well plate, 37° C., 10 h): 25 µg/mL
MIC against E. coli BL21 ([5]; 96-well plate, 37° C., 10 h): 12.5 µg/mL
MIC against A. hydrophila ([6]; 96-well plate, 37° C., 10 h): 50 µg/mL
MIC against P. mirabilis ([7]; 96-well plate, 37° C., 10 h): 50 µg/mL
MIC against E. cloacae ([8]; 96-well plate, 37° C., 10 h): 25 µg/mL
MIC against S. marcescens ([9]; 96-well plate, 37° C., 10 h): 50 µg/mL
MIC against K. pneumonia ([10]; 96-well plate, 37° C., 10 h): 12.5 µg/mL
MIC against P. aeruginosa ([11]; 96-well plate, 37° C., 10 h): 25 µg/mL
